In US6515025B2, “Use of ethynyl alanine amino diol compounds to inhibit enzymatic conversion of angiotensinogen to angiotensin I” (Pharmacia Corporation, priority 1991, dated 2003):
Read-outs that look alike come from different tables or passages of the source.

Tests used:
[1] = Oral bioavailability studies in marmosets (plasma concentration by bioassay); format: in vivo; details: plasma
Procedure: The bioavailability in marmosets and dogs was determined by sampling the blood via the femoral vein at various time points after administering the renin inhibitor compounds of the invention in polyethylene glycol 400 at an intragastric dose of 10 mg/kg or at an intravenous dose of 1 mg/kg. Compound concentration in plasma was determined using the bioassay technique described below. The percent bioavailability was calculated by dividing the area under the concentration-vs.-time curve obtained from the intragastric experiment by the area under the concentration-vs.-time curve obtained from the intravenous experiment (adjusting for different doses), and multiplying the result by 100%. The bioavailibility of Example 1 compound is 27% in marmosets and 33% in dogs.
Renin inhibitor plasma concentrations were determined by a bioassay. The plasma samples were extracted with acetonitrile and the extract was evaporated to dryness under nitrogen. Residue was dissolved in 4% bovine serum albumin containing 0.9% NaCl and 5% EDTA. The dissolved residue (0.1 ml) was incubated with a reaction mixture containing human plasma (0.12 ml), 5% phenylmethysulfonylfluoride (1.2 ul), 10% neomycin (2.4 ul), 0.5 M TES buffer (pH 7.4, 24 ul), and 0.6 mU/ml recombinant human renin (1000 U/mg, 50 ul) at 37° C. for 90 minutes. The renin activity was determined by a standard angiotensin I radioimmunoassay (New England Nuclear Corp.). The amount of test compound in the plasma was determined by comparing the extent of inhibition of renin activity with that produced by a known amount of test compound added to plasma and analyzed above.

[2] = biological target: T1, renin (Cyno Monkey plasma) (Macaca fascicularis, UniProt Q6DLS0); assay: Renin inhibitor species specificity, cyno monkey plasma renin activity; format: biochemical
T1 construct: the animal plasma is the source of both the renin substrate and the renin enzyme; from tissue; host or cells: pooled cynomolgus monkey plasma
T1 sequence (Q6DLS0 67-406): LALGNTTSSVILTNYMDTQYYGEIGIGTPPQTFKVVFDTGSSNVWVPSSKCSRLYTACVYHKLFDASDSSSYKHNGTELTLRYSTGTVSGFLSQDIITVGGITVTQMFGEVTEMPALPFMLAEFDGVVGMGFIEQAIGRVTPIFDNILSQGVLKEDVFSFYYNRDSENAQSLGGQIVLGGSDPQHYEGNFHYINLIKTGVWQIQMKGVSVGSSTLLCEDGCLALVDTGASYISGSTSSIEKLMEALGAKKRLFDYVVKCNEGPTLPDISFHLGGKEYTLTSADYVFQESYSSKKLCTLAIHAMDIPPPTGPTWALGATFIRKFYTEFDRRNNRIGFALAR
Procedure: Blood was collected in a 10 ml Becton Dickinson vacutainer tube with 0.1 ml of 15% EDTA (K3) solution (15 mg) from normal animals or high renin animals; i.e., those pre-treated with 5 mg/kg of Lasix® intramuscularly 2 times within a 6 hour interval 24 hours prior to bleeding. The blood was then centrifuged at 2500 RPM for 20 minutes and the plasma from the various species respectively pooled, aliquoted and stored in the freezer. The human plasma source was taking a prescription of an angiotensin converting enzyme inhibitor.
The plasma renin activity assay is a modification of the human renin inhibition test in that the animal plasma is the source of both the renin substrate and the renin enzyme. In a total volume of 0.1 ml, 90 mM Tris-acetate buffer, pH 7.5, 12 mM sodium EDTA, 0.012 mg/ml neomycin sulfate, 0.9 mg/ml bovine serum albumin, 1.61 mM phenylmethyl sulfonyl fluoride, 4 mM 8-hydroxyquinoline and 0.09 ml of the animal or human plasmas were incubated for 2 hours at 37° C. in a shaking water bath or at 4° C. in an ice bath in the presence or absence of renin inhibitors. The produced angiotensin I was determined by radioimmunoassay (New England Nuclear kit).
The amount of angiotensin I generated during the 2 hours at 4° C. was usually less than 5% of that activity produced at 37° C.; however, the 4° C. background values were nevertheless subtracted from the 37° C. ones for the 100% activity values. The renin inhibitors were assayed in duplicate using 5 concentrations and the data is expressed as a percent of the 100% total renin activity.

[3] = marmoset, iv, 1 mg/kg, marmoset, IV at 1 mg/kg, Test Run D table, read-out: Plasma Concentrations, Mean ± SE
[4] = marmoset, iv, 1 mg/kg, marmoset, IV at 1 mg/kg, Test Run C, individual animals, read-out: Plasma Concentrations
[5] = marmoset, iv, 1 mg/kg, marmoset, IV at 1 mg/kg, Test Run D, individual animals, read-out: Plasma Concentrations
[6] = marmoset, oral, 10 mg/kg, marmoset, IG at 10 mg/kg, Test Run B, read-out: Plasma Concentrations, Mean ± SE
[7] = marmoset, oral, 10 mg/kg, marmoset, IG at 10 mg/kg, Test Run A, individual animals, read-out: Plasma Concentrations
[8] = marmoset, oral, 10 mg/kg, marmoset, IG at 10 mg/kg, Test Run B, individual animals, read-out: Plasma Concentrations

## C#CC[C@H](NC(=O)C(CC(=O)N(C)CCN(C)C)Cc1ccccc1)C(=O)NC(CC1CCCCC1)[C@@H](O)C(O)CC(C)C (relative stereo) [Example 1, N1-[1R*-[[[1S,1R*-(cyclohexylmethyl)-2S*,3R*-dihydroxy-5-methylhexyl]amino]carbonyl]-3-butynyl]-N4-[2-(dimethylamino)ethyl]-N4-methyl-2S*-(phenylmethyl)butanediamide]
[1]; [3]
  concentration at 2 h: 1240 ± 271 ng/mL
  concentration at 3 h: 578 ± 90 ng/mL
  concentration at 4 h: 691 ± 160 ng/mL
  concentration at 6 h: 176 ± 31 ng/mL
[1]; [4]
  concentration at 2 min: 13700 ng/mL
  concentration at 30 min: 5860 ng/mL
  concentration at 1 h: 3090 ng/mL
  concentration at 3 h: 486 ng/mL
  concentration at 6 h: 264 ng/mL
[1]; [5]
  concentration at 2 min: 4200 ng/mL
  concentration at 30 min: 1950 ng/mL
  concentration at 2 h: 554 ng/mL
  concentration at 6 h: 95 ng/mL
[1]; [6]
  concentration at 30 min: 4990 ± 1750 ng/mL
  concentration at 1 h: 3840 ± 1820 ng/mL
  concentration at 2 h: 3960 ± 2000 ng/mL
  concentration at 3 h: 4510 ± 939 ng/mL
  concentration at 4 h: 3360 ± 1730 ng/mL
  concentration at 6 h: 3430 ± 457 ng/mL
  concentration at 8 h: 2610 ± 400 ng/mL
[1]; marmoset, oral, 10 mg/kg, marmoset, IG at 10 mg/kg, 5 hr, Test Run B, read-out: Plasma Concentrations, Mean ± SE
  concentration at 5 h: 2460 ± 1170 ng/mL
[1]; [7]
  concentration at 30 min: 9860 ng/mL
  concentration at 1 h: 1340 ng/mL
  concentration at 2 h: 1560 ng/mL
  concentration at 3 h: 7050 ng/mL
  concentration at 6 h: 4910 ng/mL
  concentration at 8 h: 3570 ng/mL
[1]; [8]
  concentration at 30 min: 1340 ng/mL
  concentration at 6 h: 2860 ng/mL
  concentration at 8 h: 1800 ng/mL
[1]; marmoset, oral, marmosets, IG 10 mg/kg vs IV 1 mg/kg
  bioavailability: 27%
[1]; monkey, marmosets, read-out: terminal half-life (converted)
  half-life: 1.5 h
[1]; monkey, marmosets, read-out: volume of distribution
  Vd: 0.2 L/kg
[2]; 1 nM
  % of Total Renin Activity: 81%
[2]; 4 nM
  % of Total Renin Activity: 51%
[2]; 16 nM
  % of Total Renin Activity: 18%
